Results reported in patent publication US20110184017A1, “STABLE AQUEOUS SOLUTION COMPOSITION CONTAINING SULFONAMIDE COMPOUND” (ASAHI KASEI PHARMA CORPORATION, priority 2008, published 2011).
Entries after “also recorded” stand apart in the source; their conditions may differ.

Experiments:
Japanese white rabbits = test: Rabbit intraocular pressure reduction test; format: in vivo; settings: FIG. 1
Method: In order to examine difference in the intraocular pressure reducing effect depending on a different pH of (S)-1-(4-chloro-5-isoquinolinesulfonyl)-3-(methylamino)pyrrolidine solution, the following test was performed by using Japanese white rabbits as experimental animals.
(S)-1-(4-Chloro-5-isoquinolinesulfonyl)-3-(methylamino)pyrrolidine hydrochloride obtained by the method described in International Patent Publication WO2007/026664 was dissolved in physiological saline, the solution was adjusted to pH 4, 5, 6, 7, 8 and 9 by adding sodium hydroxide, and the final concentration was adjusted to 0.5 mM. These solutions were used as (S)-1-(4-chloro-5-isoquinolinesulfonyl)-3-(methylamino)pyrrolidine solutions having different pH values.
The rabbits used were sufficiently conditioned for ophathalmic tonometry test, and used as groups each consisting of 6 animals. After a Benoxil ophthalmic solution 0.4% (an ophthalmologic local anesthesant, Santen Pharmaceutical Co., Ltd.) was applied to both eyes of each rabbit, intraocular pressure value before instillation was measured (initial intraocular pressure value, both right and left eyes) by using an ophathalmic tonometer (Model 30 Classic, Solan). […] After 2, 4, and 6 hours from the instillation, each rabbit was topically anesthetized with the an ophthalmologic local anesthesant, and intraocular pressure values of the both eyes were measured. […]

Photostability test = format: physicochemical; settings: aqueous solution; estimated from similar absorption spectrum
Method: In the following test, LT-120D3CJ (Nagano Science Co., Ltd.) was used as a photostability tester. Purity of (S)-1-(4-chloro-5-isoquinolinesulfonyl)-3-(methylamino)pyrrolidine in the samples of the examples and the comparative example was measured by the liquid chromatography method described in Test Example 2.
The samples of Example 5 and Comparative Example 3 were subjected to light irradiation at 5,000 lux for ten days […] at 25° C. by using a D65 daylight fluorescent lamp installed in the photostability tester. As the photostability tester, an apparatus was used that was capable of uniformly irradiating the samples with light by turning a table. The illumination was 5,000 lux, and 1,200,000 lux·hr in total was irradiated over ten days. The accumulated near-ultraviolet energy during the photostability test was 474 to 488 W·h/m^2.
2) Purities of (S)-1-(4-chloro-5-isoquinolinesulfonyl)-3-(methylamino)pyrrolidine in the solutions of the light-irradiated samples were compared with that of a sample stored at 5° C. in a dark place.

Compound | intraocular pressure reducing action (Japanese white rabbits; 0.5 mM solutions adjusted to pH 4, 5, 6, 7, 8 and 9, instillation to normal rabbits, 2, 4 and 6 hours) | intraocular pressure reducing action (Japanese white rabbits; 0.5 mM solutions at pH 7 to 9, instillation to rabbits) | photostability properties compared with the (methylamino)pyrrolidine compound (Photostability test)
CN[C@H]1CCN(S(=O)(=O)c2cccc3cncc(Cl)c23)C1 [(S)-1-(4-chloro-5-isoquinolinesulfonyl)-3-(methylamino)pyrrolidine] | more strongly exhibited when a pH became higher in the range of pH 4 to 9; also recorded: became higher in a pH-dependent manner | strongly exhibited | –
N[C@H]1CCN(S(=O)(=O)c2cccc3cncc(Cl)c23)C1 [(S)-1-(4-chloro-5-isoquinolinesulfonyl)-3-aminopyrrolidine] | – | – | similar
